Converted amounts (≈) assume the structure as drawn. Like-named read-outs stand apart in the source and are kept apart here. Each block holds one compound with its values, some of them ahead of it.
Legend:
[1] = Solubility in organic solvents; assay type: physicochemical; conditions: organic solvent or mixture
[2] = Hardening time of photopolymerizable resin film under continuous xenon lamp irradiation (until surface ceases to be sticky)
Source text: Bisphenol A diglycidyl ether diacrylate
(§1) Trimethylolpropane triacrylate
Triethanolamine 2.5 parts by weight
Photopolymerization initiator of formula (I)
(dialkylthioxanthone derivative)
Irradiation device and conditions: […]

[3] = Yellowing resistance of coating film after irradiation, estimated visually; set-up: key: A: Only slight yellowing; B: Clear yellowing; C: Remarkable yellowing
Source text: The above photopolymerizable resin composition was applied to a glass plate in a thickness of 25μ and left 9 cm below a xenone lamp. The sensitivity was judged by measuring the time until the surface of the coated film ceases to be sticky (whether the coated film is sticky or not is judged by the touch with finger) under the continuous irradiation.
*^1 Yellowing resistance in the above table was estimated
visually from the state of the coating film after the

[4] = Pencil hardness of pigmented coating film after passing under high-pressure mercury lamp (JIS K 5400); conditions: for Pencil hardness after passing 3 times / Pencil hardness after passing 5 times: composition (A), carbon black; for Pencil hardness after passing 3 times: 3 passages; for Pencil hardness after passing 5 times: 5 passages; for Pencil hardness after passing 6 times: composition (B), titanium oxide, 6 passages
Procedure: (§2) The following photopolymerizable resin compositions (A) and (B) were prepared. Each of the compositions was applied to an aluminum plate in a thickness of 25μ. The aluminum plate was placed on a belt conveyer moving 20 cm below an 80 W/cm high-pressure mercury lamp at a speed of 18 m/min. Relationship between the number of passage times and physical properties of the coating film was examined to obtain the results shown in Table V.
(A) Carbon black-containing composition:
Epoxy acrylate resin (Shell
as §1
Hexanediol diacrylate 14.8 parts by weight
Carbon black 2.5 parts by weight
Methyldiethanolamine 2.0 parts by weight
(§3) Photopolymerization initiator of
(§4) (B) Titanium oxide-containing
(§5) Urethane acrylate resin
(§6) Butyl acrylate 18.8 parts by weight
(§7) Vinylpyrrolidone 9.4 parts by weight
(§8) Titanium oxide (rutile type)
(§9) Methyldiethanolamine 1.5 parts by weight
*^2 Pencil hardness was determined according to JISK 5400 6, 14.

[5] = Yellowing resistance of pigmented coating film; set-up: key: A: Only slight yellowing; B: Clear yellowing; C: Remarkable yellowing; conditions: Table V; composition (B), titanium oxide; same criteria as Table II
Procedure: as §2, §4, §5, §1, §6, §7, §8, §9, §3
*^3 Yellowing resistance was estimated based on the same criteria as i

[6] = unsubstituted thioxanthone, background; cited from earlier work
[7] = dispersed in resin, storage for a long period; background; cited from earlier work
[8] = Hardening of trifunctional maleimide photopolymerizable resin film under high-pressure mercury lamp; conditions: 2.5 parts per 100 parts resin; 50μ on glass; 80 W/cm Hg lamp, 10 cm, 20 sec
Procedure: 16 Parts of diglycerol triglycidyl ether, 23 parts by weight of α-phenylmaleimidoacetic acid, 0.2 part by weight of dimethylaminoethyl methacrylate and 40 parts by weight of butyl acetate were reacted together at 90°-100° C. for 2 h to obtain a trifunctional photopolymerizable resin in which α-phenylmaleimidoacetic acid was added to substantially all glycidyl groups. 2.5 Parts by weight of 2,4-diisopropylthioxanthone of the present invention was added to 100 parts by weight of the above resin and the whole was kneaded thoroughly and applied onto a glass plate in a thickness of 50μ. […] In case 2,4-diisopropylthioxanthone was not added, the film was not hardened even after 60 min.

[9] = 1,2-dichloroethane, read-out: Solubility, 1,2-Dichloroethane
[10] = 1,2-dichloropropane, read-out: Solubility, 1,2-Dichloropropane
[11] = acetone, read-out: Solubility, Acetone
[12] = ethanol, read-out: Solubility, Ethanol
[13] = ethyl acetate, read-out: Solubility, Ethyl acetate
[14] = methanol, read-out: Solubility, Methanol
[15] = toluene, read-out: Solubility, Toluene
[16] = Table III, Control Example 1, same criteria as Table II
[17] = Table II, visual, after irradiation
[18] = Table II, 2.5 parts initiator, 2.5 parts triethanolamine, 25μ film on glass, xenon lamp 9 cm

solubility [1, 9]: > 500 mg/mL
solubility [1, 10]: > 500 mg/mL
solubility [1, 11]: 300 mg/mL (≈ 1180 mM)
solubility [1, 12]: 36 mg/mL (≈ 142 mM)
solubility [1, 13]: 300 mg/mL (≈ 1180 mM)
solubility [1, 14]: 33 mg/mL (≈ 130 mM)
solubility [1, 15]: > 500 mg/mL
Compound: CC(C)c1ccc2sc3ccccc3c(=O)c2c1 [Compound 3, 2-isopropylthioxanthone]

Compound: CCc1ccc2sc3ccccc3c(=O)c2c1C [1-Methyl-2-ethylthioxanthone]
Hardening time ([2]; Table III, Control Example 1): > 60 s

solubility [1, 9]: 166 mg/mL (≈ 734 mM)
solubility [1, 10]: 77 mg/mL (≈ 340 mM)
solubility [1, 11]: 30 mg/mL (≈ 133 mM)
solubility [1, 12]: < 10 mg/mL
solubility [1, 13]: 29 mg/mL (≈ 128 mM)
solubility [1, 14]: < 10 mg/mL
solubility [1, 15]: 55 mg/mL (≈ 243 mM)
Compound: Cc1ccc2sc3ccccc3c(=O)c2c1 [Compound 2, 2-methylthioxanthone]

Compound: CCc1ccc(CC)c2c(=O)c3ccccc3sc12 [1,4-Diethylthioxanthone]
Yellowing resistance [3, 16]: A
Hardening time ([2]; Table III, Control Example 1): 50 s

Compound: CC(C)c1ccc2sc3ccccc3c(=O)c2c1 [Isopropylthioxanthone]
Yellowing resistance [3, 16]: B
Hardening time ([2]; Table III, Control Example 1): 20 s

Compound: Cc1ccc(C)c2c(=O)c3ccccc3sc12 [1,4-Dimethylthioxanthone]
Yellowing resistance [3, 16]: B
Hardening time ([2]; Table III, Control Example 1): 40 s

Compound: CCc1c(C(C)C)ccc2sc3ccccc3c(=O)c12 [1-Ethyl-2-isopropylthioxanthone]
Yellowing resistance [3, 16]: A
Hardening time ([2]; Table III, Control Example 1): 50 s

Compound: Ethylthioxanthone
Yellowing resistance [3, 16]: C
Hardening time ([2]; Table III, Control Example 1): 40 s

Compound: CCc1cc(CC)c2sc3ccccc3c(=O)c2c1 [Example 1, 2,4-diethylthioxanthone]
Pencil hardness after passing 3 times [4]: 3H
Pencil hardness after passing 5 times [4]: 6H
Pencil hardness after passing 6 times [4]: 3H
Yellowing resistance [5]: A
Yellowing resistance [3, 17]: A
Hardening time [2, 18]: 15 s

solubility [1, 9]: 11 mg/mL (≈ 51.8 mM)
solubility [1, 10]: < 5 mg/mL
solubility [1, 11]: < 5 mg/mL
solubility [1, 12]: < 5 mg/mL
solubility [1, 13]: 5 mg/mL (≈ 23.6 mM)
solubility [1, 14]: < 5 mg/mL
solubility [1, 15]: < 5 mg/mL
Compound: O=c1c2ccccc2sc2ccccc12 [Compound 1, thioxanthone]
Hardening time ([2]; Table III, Control Example 1): > 60 s
Solubility in and compatibility with photopolymerizable compound [6]: poor solubility
Crystallization during storage [7]: crystallizes out during the storage for a long period of time

Compound: Methylthioxanthone
Yellowing resistance [3, 16]: C
Hardening time ([2]; Table III, Control Example 1): 40 s

Compound: CC(C)c1ccc(C(C)C)c2c(=O)c3ccccc3sc12 [1,4-Diisopropylthioxanthone]
Yellowing resistance [3, 16]: A
Hardening time ([2]; Table III, Control Example 1): 50 s

Compound: CC(C)(C)c1cc(C(C)(C)C)c2sc3ccccc3c(=O)c2c1 [Example 10, 2,4-di-tert-butylthioxanthone]
Yellowing resistance [3, 17]: A
Hardening time [2, 18]: 25 s

Compound: Cc1cc(C(C)(C)C)cc2c(=O)c3ccccc3sc12 [Example 5, m-tert-butylmethyl thioxanthone]
Yellowing resistance [3, 17]: A
Hardening time [2, 18]: 15 s

solubility [1, 9]: > 500 mg/mL
solubility [1, 10]: > 500 mg/mL
solubility [1, 11]: > 400 mg/mL
solubility [1, 12]: 90 mg/mL (≈ 304 mM)
solubility [1, 13]: > 500 mg/mL
solubility [1, 14]: 60 mg/mL (≈ 202 mM)
solubility [1, 15]: > 500 mg/mL
Compound: CC(C)c1cc(C(C)C)c2sc3ccccc3c(=O)c2c1 [Example 2, 2,4-diisopropylthioxanthone]
Pencil hardness after passing 3 times [4]: 4H
Pencil hardness after passing 5 times [4]: ≥ 6H
Pencil hardness after passing 6 times [4]: 4H
Yellowing resistance [5]: A
Yellowing resistance [3, 17]: A
Hardening time [2, 18]: 10 s
Hardened coating film [8]: coating film insoluble in dichloroethane or acetone

Compound: CCc1ccc(C)c2c(=O)c3ccccc3sc12 [1-Methyl-4-ethylthioxanthone]
Yellowing resistance [3, 16]: B
Hardening time ([2]; Table III, Control Example 1): 50 s

Source: patent US4450279A, “Dialkylthioxanthones” (priority 1981, dated 1984)
